Row | SMILES | melting point
1 | COc1cc(N)c(Cl)cc1C(=O)NCC1CCN(CCCCNC(=O)c2cccc3ccccc23)CC1 | 138 to 141 °C
2 | CCOc1nc2ccccc2nc1NC(=O)N1CCN(C(c2ccccc2)c2ccccc2)CC1 | 156 to 158 °C
3 | NC(=O)C1CCc2[nH]c3cc(Cl)c(Cl)cc3c2C1 (centres undefined) | 199 to 200 °C
4 | CCOc1cc(CC)ccc1C1CCN(CCCCNC(=O)c2ccc(-c3ccc(S(C)(=O)=O)cc3)cc2)CC1 | 179 to 180 °C
5 | Cc1ccc(-c2c3c(cc4ccc(O)cc24)-c2ccc(O)cc2CO3)cc1 | 238 to 240 °C
6 | [N-]=[N+]=Nc1cc(OCCO)ncn1 | 49 to 50 °C
7 | O=C(O)CS(=O)(=O)Nc1ccc(F)c(C(F)(F)F)c1 | 138 to 140 °C
8 | Cc1cnc2c(NC(=O)c3c(Cl)cccc3Cl)cccc2c1N1CCNC1=O | > 250 °C
9 | O=C(CCl)Nc1ccc2c(c1NC(=O)c1cccc(Cl)c1)C(=O)c1ccccc1C2=O | 188 to 189 °C
10 | O=C1c2ccccc2-n2cnc(I)c2[C@@H]2CCCN12 | 222 to 223 °C
11 | CC(C)(C)c1ccc(S(=O)(=O)N2c3ccccc3C[C@H]2C(=O)NCc2ccc(N)cc2)cc1 | 83 to 87 °C
12 | O=c1oc(C=Cc2ccccc2)nc2ccccc12 | 145 to 147 °C
13 | COc1ccc(S(=O)(=O)N2C(=O)[C@@](c3ccccc3OC)(N3C[C@H](OC(=O)C4CCCCC4)C[C@H]3C(=O)N(C)C)c3cc(Cl)ccc32)c(OC)c1 | 197 to 198 °C
14 | O=C1OC[C@H](c2ccccc2)N1C(=O)C1C=C1 | 118 to 119 °C
15 | CCN1CCc2cc(S(=O)(=O)C[N+](=O)[O-])ccc21 | 122 °C
16 | N#Cc1cc(F)cc(-c2cc(Br)c3c(c2)C2(CCCCC2)C(=O)N3)c1 | 217 °C
17 | Cc1cc(C)cc(-c2nc(NC(=O)c3cccnc3)sc2-c2ccncc2)c1 | 267 to 270 °C
18 | COC(=O)C(=O)c1ccc(OCCCCOc2ccccc2)cc1 | 57 to 59 °C
19 | CC(=O)Oc1cc(CCc2ccccc2)cc(OC(C)=O)c1 | 48 to 48.5 °C
20 | COc1ccc2c(cc(CCC(=O)O)n2S(=O)(=O)c2ccccc2)n1 | 136 to 139 °C
21 | CCOc1ccc(N)cc1-c1nc2cccnc2c(=O)[nH]1 | 208 to 210 °C
22 | CC(NC(=O)Cc1cc(F)cc(F)c1)C(=O)NC1C(=O)NCc2ccccc21 (centres undefined) | 243 to 244 °C
23 | O=S(=O)(c1ccccc1)c1c[nH]c2ccc(CCN3CCN(Cc4ccccc4)CC3)cc12 | 150 to 153 °C
24 | CC(C)=CCn1c(N2CCC(N)C2)nc2c1c(=O)n(C)c(=O)n2C (centres undefined) | 119 °C
25 | O=C(OC1CCCCCCC1)c1ncn2c1[C@@H]1CCCN1C(=O)c1c(Cl)cccc1-2 | 183 to 184 °C

Row | SMILES | melting point
26 | CC(C)(C)c1cc(C(=O)Nc2ccc(N)cc2)cc(C(C)(C)C)c1O | 220 to 221 °C
27 | CC1(NC(=O)CN2C(=O)c3ccccc3C2=O)CCCCCC1 | 190 °C
28 | CC(N=c1cccccc1NC(C)c1ccccc1)c1ccccc1 (centres undefined) | 74 °C
29 | CC(=O)NCc1coc2c(OC(C)=O)cccc12 | 138 to 139 °C
30 | CC12CCC(OC(=O)c3ccc(O)cc3)CC1=CCC1C2CCC2(C)C(=NO)CCC12 (centres undefined) | 177 to 182 °C
31 | CCCCCCCCCCCCON(Cc1ccccc1)C(c1ccccc1)P(=O)(OCCCCCCCCCCCC)OCCCCCCCCCCCC (centres undefined) | 38 to 40 °C
32 | O=C1c2ccccc2C(=O)N1Cc1cccc(-c2nc(=O)c3ccccc3s2)n1 | 280 to 281 °C
33 | O=C1CCC(c2ccccc2)c2cc(Cl)ccc2N1 (centres undefined) | 184 to 186 °C
34 | Clc1ccc(-c2cccs2)cn1 | 124 to 126 °C
35 | C[C@@H](N1CCN(c2ccc(OC(F)(F)C(F)F)cc2)C1=O)[C@@]1(c2ccccc2F)CO1 | 148 to 149 °C
36 | COC(=O)c1c(Cc2ccc(C(=O)NC3CCC(O)CC3)cc2)c(=O)c2ccc(Cl)cc2n1-c1ccccc1 (centres undefined) | 151 to 152 °C
37 | COc1ccc(CC(C)NCC(O)c2cccc(Br)c2)cc1 (centres undefined) | 79 to 83 °C
38 | CCOC(=O)C=Cc1ccn(S(=O)(=O)c2ccc3nc[nH]c(=O)c3c2)c1 | 207 to 210 °C
39 | CC(C)N(CCCCO)c1cnc(-c2ccccc2)c(-c2ccccc2)n1 | 102 to 103 °C
40 | CNc1nc(-c2cccc(NC(=O)CCc3ccccc3)c2)c2cc(OC)c(OC)cc2n1 | 180 to 182 °C
41 | CC(SC(=S)c1cc(C(C)(C)C)c(O)c(C(C)(C)C)c1)c1ccccc1 (centres undefined) | 70 to 72 °C
42 | COc1cccc2c1CC(n1cc[nH]c1=S)CC2 (centres undefined) | 249 to 251 °C
43 | Nc1c(C(=O)O)cccc1-c1ccc(CCc2ccc(Cl)c(C(F)(F)F)c2)cc1 | 150 to 152 °C
44 | CC(=O)Nc1ccn2nc(-c3ccccc3)c(-c3ccc(=O)n(C(C)C)n3)c2c1 | 221 to 222 °C
45 | COc1cccc(-c2cn(N=Cc3ccccc3)c(N)n2)c1 | 170 to 171 °C
46 | O=C(O)C(F)Oc1ccccc1 (centres undefined) | 61 to 63 °C
47 | O=C(Nn1ccc2ccccc21)C1=CCCN(CCN2CCCCC2)C1 | 65 °C
48 | O=C1Nc2cccnc2N(CC#CCN2CCOCC2)c2ccccc21 | 168 °C
49 | CS(=O)(=O)Nc1ccc(C23CC2C(=O)NC3=O)cc1 (centres undefined) | 208 to 209 °C
50 | CP(=O)(O)CCC(=O)Nc1c(Br)cc(Br)cc1Br | 248 °C

Row | SMILES | melting point
51 | Cc1cccc(NC(=O)NCC(=O)N(CC(=O)NCC2CC2)c2ccccc2)c1 | 168 °C
52 | CC1CC(=O)Nc2nc(OCCCCN3CCN(c4cccc(Cl)c4Cl)CC3)ccc21 (centres undefined) | 53 to 54 °C
53 | CN(C)CC1CCCCN1CC(=O)N1c2ccccc2C(=O)Nc2cccnc21 (centres undefined) | 189 to 190 °C
54 | Clc1ccc(Br)c2nc(SCc3ccccc3)nn12 | 122 to 124 °C
55 | COc1cccc(C2C=C(C)NC(CN3C(=O)c4ccccc4C3=O)=C2)c1[N+](=O)[O-] (centres undefined) | 98 °C
56 | CNC(=O)c1cc(C)ccc1Nc1nc(Cl)ncc1Cl | 192 to 210 °C
57 | CCCCCCCCCCCCn1c2cc(Br)ccc2c2ccc(Br)cc21 | 78 to 79 °C
58 | C[C@@H](NC(=O)c1c[nH]c2ncc(-c3nccc4ccccc34)nc12)C(=O)N1CC(C#N)C1 | 180 to 185 °C
59 | O=C(O)CCCCOc1ccc(OCc2ccccc2)cc1 | 127 to 128 °C
60 | COc1ccc(S(C)(=O)=O)cc1N | 174 to 178 °C
61 | CN(C)c1ccc(C=CC(=O)N2CCc3c([nH]c4ccccc34)C2c2ccc3c(c2)CCO3)cn1 (centres undefined) | 171 °C
62 | COc1ccc(-n2c(=O)c(CCCO)c(O)c3cccnc32)cc1 | 229 to 231 °C
63 | COC(=O)c1ccccc1SC1=C(O)CC(CCC(C)C)(c2ccccc2)OC1=O (centres undefined) | 115 to 116 °C
64 | Cc1ccc(I)c(CC(=O)N(C)C)c1 | 47 to 49 °C
65 | O=C1Nc2ccc(F)cc2C1c1ncnc2nn(C3CCCC3)cc12 (centres undefined) | 256 to 260 °C
66 | CCCNc1nc(N)nc2c1ncn2C1C=CC(CO)C1 (centres undefined) | 138 to 140 °C
67 | Cc1cc(N2CC=C(C(N)=O)CC2)c2cccc(-c3ccc(Cl)cc3Cl)c2n1 | 264 to 266 °C
68 | CCN(CC)CCNC(=O)N1CCCC(S(=O)(=O)c2ccc(OC)cc2)C1 (centres undefined) | 118 to 121 °C
69 | C=C(COCc1ccccc1)C(O)C(NC=O)C(=O)OCC (centres undefined) | 112 to 114 °C
70 | Cc1ccc(CCc2nc3cc(-c4ccc(S(=O)(=O)N(C)C)cc4)cnc3[nH]2)nc1N | 157 °C
71 | Cc1nnc2n1-c1ccc(Cl)cc1C(N1CC=CCC1)=NC2 | 192 to 194 °C
72 | N#CCCc1cncnc1N[C@H]1CC[C@@H](c2ccccc2)CC1 | 58 to 59 °C
73 | CC(=O)OC1C(Oc2cccc(O)c2C(=O)CCc2ccc3occc3c2)OC(CO)C(O)C1O (centres undefined) | 152 to 156 °C
74 | Cn1c(CCc2ccc(C#N)cc2)nc2cc(NS(=O)(=O)c3ccccc3)ccc21 | 222 to 225 °C
75 | O=C1c2ccccc2S(=O)(=O)N1C1CCN(CC2COc3ccccc3O2)CC1 (centres undefined) | 224 to 230 °C

Row | SMILES | melting point
76 | CCCCCS(=O)(=O)NC(=O)CCCc1ccc(OCCOCC)cc1Oc1ncc(C(F)(F)F)cc1Cl | 96 to 97 °C
77 | Cc1nc2ccccc2cc1NC(=O)N1CCN(c2cc(Cl)cc(Cl)c2)CC1 | 247 to 249 °C
78 | O=C(Nc1ccccc1)n1nc(-c2ccccc2)cc1Sc1ccccc1 | 138 to 140 °C
79 | CCOC(=O)c1c(C(F)(F)F)nc(C(F)(F)F)c(C(=O)OC)c1N1CCCC1 | 68.5 to 70 °C
80 | O=C(O)Cc1ccc2cc(O)ccc2c1 | 208 to 210 °C
81 | Cc1cnc(CNC(=O)c2sc(N3CCN(CC4CC4)C3=O)nc2C)cn1 | 161 to 163 °C
82 | NC(=O)N1C(=O)C(C(=O)c2cc(Cl)cs2)c2nc(Cl)ccc21 (centres undefined) | > 250 °C
83 | CC(C)CC(=O)Nc1ccc(Cl)c(-c2ccnc3c(C(=O)c4cccs4)cnn23)c1 | 162 to 165 °C
84 | O=C1c2cc3nnn(Cc4cccnc4)c(=O)c3cc2OC2CCCN12 (centres undefined) | 203 to 205 °C
85 | Nc1nc2c(s1)CC(CN1CC=C(c3ccccc3)CC1)CC2 (centres undefined) | 187 to 190 °C
86 | CC(C)[C@H](NC(=O)N(C)Cc1csc(C2CCC2)n1)C(=O)N[C@@H](Cc1ccccc1)C[C@H](O)[C@H](Cc1ccccc1)NC(=O)OCc1cncs1 | 74 to 76 °C
87 | CCCCC(NC(=O)C(CS)C(C)c1ccccc1)C(=O)O (centres undefined) | 55 °C
88 | CCNCC1(C)CN(c2c(F)cc3c(=O)c(C(=O)O)cn4c3c2OC[C@H]4C)C1 | 242 to 245 °C
89 | CCOC(=O)N1CCC(CCCOc2ccc(C3=NCCCO3)cc2)CC1 | 128 °C
90 | CN1Cc2c(C(N)=O)ncn2-c2sccc2C1=O | > 250 °C
91 | OCCNCCCCCCNCCO | 75 to 79 °C
92 | N#Cc1cccc2c1NCC2 | 66 to 67 °C
93 | CCc1cccc(CC)c1NC(=O)NC1(c2cccs2)CCCCC1 | 208 to 210 °C
94 | COCC1CN(c2ccc(C3CCCCC3)c(N)c2)C(=O)O1 (racemic) | 130 to 132 °C
95 | S=C(SCc1ccccc1)N1CC2CCC(CC2)C1 | 98 to 99 °C
96 | CCOC(=O)C1C(=O)CC(C)(O)C(C(=O)OCC)C1c1cccc2oc3c(c12)CCCC3 (centres undefined) | 155 to 157 °C
97 | O=CN1CCN(Cc2nc3ccccc3[nH]2)CC1 | 194 to 198 °C
98 | COC(=O)C1(C(N)=O)CC1 | 157 °C
99 | CN(Cc1ccc(NC(=O)C2=Cc3cc(Br)ccc3CCC2)cc1)C1CCOCC1 | 116 to 121 °C

From a melting point compilation (Tetko et al.; mined from patent text by program, amines drawn as free bases though some values may be those of a salt)
